In one series the test system is LDL. As to the kind of experiment: LDL oxidation by copper, conjugated diene formation (OD 234 nm). The series is classed as biochemical. The following applies: 10^−4 M; for LDL oxidation rate (rate of conjugated diene formation): copper alone 3 nmol/min/mg of LDL; for increase in the lag phase: relative to copper alone; for decrease in the maximum amount of conjugated dienes formed: copper alone 496 nmol per mg of LDL. The protocol:
Oxidation of LDL is an important modification which plays a major role in the onset and development of atherosclerosis (Jurgens, Hoff et al. 1987). […] Unless otherwise indicated, all reagents were from Sigma (St Quentin, France).
LDL were prepared as described by Lebeau et al. (Lebeau, Furman et al. 2000). The solutions of the test compounds were prepared at 10^−2 M in ethanol and diluted in PBS so that the final concentration ranged from 0.1 to 100 μM with a total ethanol concentration of 1% (VN).
Before oxidation, EDTA was removed from the LDL preparation by dialysis. The oxidation reaction was then carried out at 30° C. by adding 100 μl of 16.6 μM CuSO4 to 800 μl of LDL (125 μg protein/ml) and 100 μl of a test compound solution. The formation of dienes, the species to be followed, was measured by the optical density at 234 nm in the samples treated with the compounds in the presence or absence of copper. Optical density at 234 nm was measured every 10 minutes for 8 hours on a thermostated spectrophotometer (Kontron Uvikon 930). The analyses were carried out in triplicate. A compound was considered to have antioxidant activity when it shifted the lag phase latency relative to the control sample. […] FIG. 4 presents an example of the results obtained with the inventive compounds.

The next series concerns the target T1, PPARα (Homo sapiens, UniProt Q07869).
T1 construct: expressed in transfected cells; host or cells: HepG2
T1 sequence (Q07869 239-466 limits assumed): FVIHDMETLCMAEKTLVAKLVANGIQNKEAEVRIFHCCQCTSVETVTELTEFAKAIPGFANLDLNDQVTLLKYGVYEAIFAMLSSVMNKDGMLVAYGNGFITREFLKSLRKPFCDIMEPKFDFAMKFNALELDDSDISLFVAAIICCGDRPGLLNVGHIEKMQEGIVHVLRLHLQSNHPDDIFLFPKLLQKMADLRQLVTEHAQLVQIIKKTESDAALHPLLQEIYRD
As to the kind of experiment: Gal4/PPARα transactivation system in HepG2 cells (luciferase reporter). The series is classed as cell-based. As to conditions: HepG2 cells transfected with Gal4/PPARα plasmids, 24 h. As for the experimental part:
PPAR activation was tested in vitro in RK13 fibroblast cell lines or in a hepatocyte line HepG2 by measuring the transcriptional activity of chimeras composed of the DNA binding domain of the yeast gal4 transcription factor and the ligand binding domain of the different PPARs. The example below is given for HepG2 cells.
HepG2 cells were from ECACC (Porton Down, UK) and were grown in DMEM medium supplemented with 10% (VN) fetal calf serum, 100 U/ml penicillin (Gibco, Paisley, UK) and 2 mM L-glutamine (Gibco, Paisley, UK). The culture medium was changed every two days. Cells were kept at 37° C. in a humidified 95% air/5% CO2 atmosphere.
The plasmids pG5TkpGL3, PRL-CMV, pGal4-hPPARα, pGal4-hPPARγ and pGal4-f have been described by Raspe et al. (Raspe, Madsen et al. 1999). The pGal4-mPPARα and pGal4-hPPARβ constructs were obtained by cloning PCR-amplified DNA fragments corresponding to the DEF domains of the mouse PPARα and […] nuclear receptors, respectively, into the pGal4-f vector.
HepG2 cells were seeded in 24-well culture dishes at 5×10^4 cells/well and transfected for 2 hours with the reporter plasmid pG5TkpGL3 (50 ng/well), the expression vectors pGal4-f, pGal4-mPPARα, pGal4-hPPARα, pGal4-hPPARγ, or pGal4-hPPARβ (100 ng/well) and the transfection efficiency control vector pRL-CMV (1 ng/well) according to the previously described protocol (Raspe, Madsen et al. 1999), then incubated for 36 hours with the test compounds. At the end of the experiment, the cells were lysed (Gibco, Paisley, UK) and luciferase activity was determined with a Dual-Luciferase™ Reporter Assay System kit (Promega, Madison, Wis., USA) according to the supplier's instructions. The protein content of the cell extracts was then measured with the Bio-Rad Protein Assay kit (Bio-Rad, Munich, Germany) as directed by the supplier. […] FIG. 3 gives an example of the results obtained with the inventive compounds.
FIG. 3: HepG2 cells transfected with Gal4/PPARα plasmids were incubated with different concentrations (5, 15, 50 and 100 μM) of the inventive comopunds (Ex 2a, Ex 4a, Ex 4p, Ex 5a, Ex 7 and Ex 11) for 24 h and with different concentrations of the vehicle (PC) noted 1, 2, 3, 4 as controls for the 5, 15, 50 and 100 μM concentrations of the inventive compounds (according to the 4:1 (m/m) ratio described in example 2 (Method of preparation of the inventive compounds for in vitro studies)). The results are expressed as the induction factor (luminescent signal of treated cells divided by luminescent signal of untreated cells) after the different treatments. […] The induction factors for inventive compound Ex 4p were 35 at 100 μM, 44 at 50 μM, 36 at 15 μM and 24 at 5 μM. The induction factors for compound Ex 5a were 32 at 100 μM, 34 at 50 μM, 15 at 15 μM and 4 at 5 μM. Finally, inventive compound Ex 7 induced a 19-fold induction at 100 μM, 19 at 50 μM, 7 at 15 μM and 1.5 at 5 μM. In contrast, when the cells were incubated with the vehicle (PC liposome), no significant induction was observed.

In the case of `CCCCCCCCCCCCCCCC(=S)OC(CN)CN.Cl.Cl`, the melting point (as a rule, the temperature of the solid-liquid transition) was 224 °C (dec.).

“1,2-(dipalmitoyloxy)-3-tetradecylthioacetylaminopropane [Ex 9]”: in the series with LDL, the “LDL oxidation rate (rate of conjugated diene formation)” value (“LDL oxidation rate” for short) is “did not significantly alter” and the “increase in the lag phase” value was 33%.

In the case of `CCCCCCCCCCCCCCSCC(=O)OCC(O)CO` (stereo not drawn) [Ex 2a, 1-tetradecylthioacetylglycerol], the “induction factor (luminescent signal of treated cells divided by luminescent signal of untreated cells)” value is reported as 17 fold at PPARα (5 μM), 31 fold on PPARα (15 μM), 41 fold at PPARα (50 μM) and 62 fold on PPARα (100 μM). Moreover, the “LDL oxidation rate” value with LDL is listed as “did not significantly alter”. In addition, the “increase in the lag phase” value in the series on LDL is listed as 67%.

With `CCCCCCCCCCCCCCCC(=O)OCC(COC(=O)CCCCCCCCCCCCCCC)OC(=O)CSCCCCCCCCCCCCCC` [Ex 4g, 1,3-dipalmitoyl-2-tetradecylthioacetylglycerol], in the series with LDL, the “LDL oxidation rate” value was 1.8 nmol/min/mg of LDL, the “decrease in the maximum amount of conjugated dienes formed” value is 31% and the “increase in the lag phase” value stood at 170%. In the series on LDL (copper alone 104 minutes), the “lag phase for conjugated diene formation” value was determined as 282 min.

As for `CCCCC/C=C\C/C=C\CCCCCCCC(=O)OCC(COC(=O)CCCCCCC/C=C\C/C=C\CCCCC)OC(=O)CSCCCCCCCCCCCCCC` [Ex 4h, 1,3-dilinoleoyl-2-tetradecylthioacetylglycerol], in the series on LDL, the “LDL oxidation rate” value was 2.5 nmol/min/mg of LDL, the “decrease in the maximum amount of conjugated dienes formed” value was found to be 24% and the “increase in the lag phase” value was 43%.

On to `CCCCCCCCCCCCCCCC(=O)OC(COC(=O)CSCCCCCCCCCCCCCC)COC(=O)CSCCCCCCCCCCCCCC` [Ex 4o, 1.3-ditetradecylthioacetyl-2-palmitoyl-glycerol], for which, in the series on LDL, the “LDL oxidation rate” value is given as “did not significantly alter” and the “increase in the lag phase” value is 37%.

As for `CCCCCCCCCCCCCCSCC(=O)OC(COC(C)=O)COC(C)=O` [Ex 4p, 1,3-diacetyl-2-tetradecylthioacetylglycerol], the “induction factor (luminescent signal of treated cells divided by luminescent signal of untreated cells)” value was 24 fold at PPARα (5 μM), 36 fold at PPARα (15 μM), 44 fold at PPARα (50 μM) and 35 fold at PPARα (100 μM).

For `CCCCCCCCCCCCCCSCC(=O)NC(CO)CO` [Ex 5a, 2-tetradecylthioacetamidopropane-1.3-diol], the “induction factor (luminescent signal of treated cells divided by luminescent signal of untreated cells)” value on PPARα (5 μM) amounted to 4 fold; at PPARα (15 μM), 15 fold; on PPARα (50 μM) it was 34 fold; on PPARα (100 μM), 32 fold.

Regarding `CCCCCCCCCCCCCCSCC(=O)NCC(O)CO` (stereo not drawn) [Ex 7, 3-(tetradecylthioacetylamino)propane-1,2-diol], the “induction factor (luminescent signal of treated cells divided by luminescent signal of untreated cells)” value at PPARα (5 μM) is on record as 1.5 fold; at PPARα (15 μM), 7 fold; on PPARα (50 μM), 19 fold; on PPARα (100 μM), 19 fold.

(Values after patent US20060154984A1, “Therapeutic use of acyl glycerols and the nitrogen- and sulphur- containing analogues thereof” (priority 2003, published 2006).)
